# Assay results taken from patent US11834424B2, “Compounds useful as chaperone-mediated autophagy modulators” (ALBERT EINSTEIN COLLEGE OF MEDICINE, priority 2018, dated 2023).
# Where “and” joins values, the source holds several entries; their conditions need not be identical. Identical values can stand only once. Like-named read-outs stand apart in the source and are kept apart here.
# Assays:
# [1] = Pharmacokinetics (plasma and brain levels) in ICR (CD-1) mice; type: in vivo; conditions: i.v. 1 mg/kg, 1 mg/kg
# Protocol: ICR (CD-1) male mice were fasted at least three horns and water was available ad libitum before the study. Animals were housed in a controlled environment, target conditions: temperature 18 to 29° C., relative humidity 30 to 70%. Temperature and relative humidity was monitored daily. An electronic time controlled lighting system was used to provide a 12 h light/12 h dark cycle. 3 mice for each indicated time point. ICR (CD-1) mice were administered CA77 at 1 mg/kg i.v. and 30 mg/kg p.o. or CA77.1 at 1 mg/kg i.v. (FIG. 2A) and 10 mg/kg p.o. (FIG. 2B). Three (3) mice were included in each dosage and time group. Mice were sacrificed and plasma and brains were obtained at 0.083, 0.25, 0.50, 1.0, 2.0, 4.0, 8.0, and 24.0 hours after administration and drug concentration determined using LC-MS/MS. Brains were removed, homogenized with a tissue homogenizer in cold 5% w/v BSA in phosphate buffer saline (PBS). A 100 microliter aliquots of brain samples were dispensed in to glass culture tubes and mixed with ethyl acetate (800 μl), vortexed, and centrifuged. The organic layer was transferred to a fresh culture tube, dried under nitrogen, and reconstituted in mobile phase for quantitation. Pharmacokinetic parameters were determined by standard methods using Phoenix WinNonlin 6.3 software.
# Tables 3A and 3B provide the concentrations of CA77 in ICR (CD-1) mouse plasma (3A) and mouse brain (3B) following i.v. administration of 1 mg/kg CA77. Table 3C provides the brain/plasma ratio of CA77 following i.v. administration of 1 mg/kg CA77. Shaded cells indicate data not included in statistics due to aberrant value. BLQ=Below Limit of Quantitation.
# Tables 5A and 5B provide the concentrations of CA77.1 in ICR (CD-1) mouse plasma (5A) and mouse brain (5B) following i.v. administration of 1 mg/kg CA77.1. Table 5C provides the brain/plasma ratio of CA77.1 following i.v. administration of 1 mg/kg CA77.1. The plasma and brain pharmacokinetic parameters for CA77.1 are provided in Table 6. *—cells contain data not present in the statistics.
# [2] = system: chaperone-mediated autophagy (CMA) in NIH 3T3 fibroblasts; experiment: Photoswitchable KFERQ-Dendra CMA reporter assay in NIH 3T3 fibroblasts; type: cell-based
# Protocol: The photoactivatable CMA reporter assay was constructed by inserting a sequence of 21 amino acid of Ribonuclease A bearing the CMA-targeting motif in the N-terminus multicloning site of the photoactivatable protein mCherryl or the photoswitchable protein Dendra 2.
# NIH 3T3 fibroblasts were stably transduced with a photoconvertible CMA reporter, KFERQ-Dendra. were photoswitched by exposure to a […] (constant current) LED (Norlux, 405 nm) for 10 minutes and at the desired times fixed in 3% formaldehyde. Test cells were exposed to the indicated concentrations of the compounds for 12 hours (FIG. 3A) or 24 hours (FIG. 3B). Cells were imaged using high content microscopy (Operetta, Perkin Elmer) or by capturing images with an Axiovert 200 fluorescence microscope (Zeiss) with apotome and equipped with a 63/1.4 NA oil objective lens and red (ex. 570/30 nm, em. 615/30 nm), cyan (ex. 365/50 nm and em. 530/45 nm) and green (ex. 475/40 nm and em. 535/45 nm) filter sets (Chroma). Images were acquired with a high-resolution CCD camera after optical sectioning through the apotome. CMA activity measured as the average number of fluorescent puncta (CMA active lysosomes) per cell. Values are expressed relative to values in untreated cells that were assigned an arbitrary value of 1 and are mean of >2,500 cells counted per condition. The S.D. in all instances was <0.01% mean value. Table 2 provides a comparison of compounds CA39.1 and its comparative example CA39 and CA77.01 and its comparative example CA77.
smiles,measurement,setting,value
"CC(=O)Nc1ccc(C2=Nc3ccc(Cl)cc3OC2)cc1 [CA77, reference compound]","Conc. in brain, individual animal","[1]; mouse brain, 0.083 h",2943 ng/g and *693 ng/g
same,"Conc. in brain, individual animal","[1]; mouse brain, 0.25 h",3391 ng/g and 5173 ng/g and 2397 ng/g
same,"Conc. in brain, individual animal","[1]; mouse brain, 0.50 h",2795 ng/g and 2950 ng/g
same,"Conc. in brain, individual animal","[1]; mouse brain, 1.00 h",2651 ng/g and 2154 ng/g
same,"Conc. in brain, individual animal","[1]; mouse brain, 2.00 h",411 ng/g and 792 ng/g
same,"Conc. in brain, individual animal","[1]; mouse brain, 4.00 h",112 ng/g and 124 ng/g
same,"Conc. in brain, individual animal","[1]; mouse brain, 8.00 h",7.74 ng/g and 27.5 ng/g and 41.4 ng/g
same,"Conc. in brain, individual animal","[1]; mouse brain, 24.0 h",2.68 ng/g and 4.25 ng/g and 2.07 ng/g
same,"Conc. in plasma, individual animal","[1]; mouse plasma, 0.083 h",41.4 ng/mL and *14 ng/mL
same,"Conc. in plasma, individual animal","[1]; mouse plasma, 0.25 h",27.2 ng/mL and 43.9 ng/mL and 19.5 ng/mL
same,"Conc. in plasma, individual animal","[1]; mouse plasma, 0.50 h",14.6 ng/mL and 21.9 ng/mL
same,"Conc. in plasma, individual animal","[1]; mouse plasma, 1.00 h",21.5 ng/mL and 15.3 ng/mL
same,"Conc. in plasma, individual animal","[1]; mouse plasma, 2.00 h",7.54 ng/mL and 1.71 ng/mL and 3.84 ng/mL
same,"Conc. in plasma, individual animal","[1]; mouse plasma, 4.00 h",BLQ and 0.533 ng/mL
same,"Brain/Plasma ratio, individual animal","[1]; mouse, 0.083 h",71.1 and *48.9
same,"Brain/Plasma ratio, individual animal","[1]; mouse, 0.25 h",118 and 123
same,"Brain/Plasma ratio, individual animal","[1]; mouse, 0.50 h",192 and 135
same,"Brain/Plasma ratio, individual animal","[1]; mouse, 1.00 h",123 and 141
same,"Brain/Plasma ratio, individual animal","[1]; mouse, 2.00 h",102 and 240 and 206
same,"Brain/Plasma ratio, individual animal","[1]; mouse, 4.00 h",232
same,concentration at 0.083 h,"[1]; male, ICR (CD-1), mouse, brain, iv, mouse brain, 0.083 h, read-out: Conc. in brain, Mean",3360 ng/g
same,concentration at 0.083 h,"[1]; male, ICR (CD-1), mouse, brain, iv, mouse brain, 0.083 h, read-out: Conc. in brain, individual animal",3770 ng/g
same,concentration at 0.25 h,"[1]; male, ICR (CD-1), mouse, brain, iv, mouse brain, 0.25 h, read-out: Conc. in brain, Mean",3650 ng/g
same,concentration at 0.5 h,"[1]; male, ICR (CD-1), mouse, brain, iv, mouse brain, 0.50 h, read-out: Conc. in brain, Mean",2650 ng/g
same,concentration at 0.5 h,"[1]; male, ICR (CD-1), mouse, brain, iv, mouse brain, 0.50 h, read-out: Conc. in brain, individual animal",2200 ng/g
same,concentration at 1 h,"[1]; male, ICR (CD-1), mouse, brain, iv, mouse brain, 1.00 h, read-out: Conc. in brain, Mean",2460 ng/g
same,concentration at 1 h,"[1]; male, ICR (CD-1), mouse, brain, iv, mouse brain, 1.00 h, read-out: Conc. in brain, individual animal",2760 ng/g
same,concentration at 2 h,"[1]; male, ICR (CD-1), mouse, brain, iv, mouse brain, 2.00 h, read-out: Conc. in brain, Mean",659 ng/g
same,concentration at 2 h,"[1]; male, ICR (CD-1), mouse, brain, iv, mouse brain, 2.00 h, read-out: Conc. in brain, individual animal",773 ng/g
same,concentration at 4 h,"[1]; male, ICR (CD-1), mouse, brain, iv, mouse brain, 4.00 h, read-out: Conc. in brain, Mean",104 ng/g
same,concentration at 4 h,"[1]; male, ICR (CD-1), mouse, brain, iv, mouse brain, 4.00 h, read-out: Conc. in brain, individual animal",76 ng/g
same,concentration at 8 h,"[1]; male, ICR (CD-1), mouse, brain, iv, mouse brain, 8.00 h, read-out: Conc. in brain, Mean",25.6 ng/g
same,concentration at 24 h,"[1]; male, ICR (CD-1), mouse, brain, iv, mouse brain, 24.0 h, read-out: Conc. in brain, Mean",3 ng/g
same,Kp at 0.083 h,"[1]; male, ICR (CD-1), mouse, brain/plasma, iv, mouse, 0.083 h, read-out: Brain/Plasma ratio, Mean",71.2
same,Kp at 0.083 h,"[1]; male, ICR (CD-1), mouse, brain/plasma, iv, mouse, 0.083 h, read-out: Brain/Plasma ratio, individual animal",71.3
same,Kp at 0.25 h,"[1]; male, ICR (CD-1), mouse, brain/plasma, iv, mouse, 0.25 h, read-out: Brain/Plasma ratio, Mean",122
same,Kp at 0.25 h,"[1]; male, ICR (CD-1), mouse, brain/plasma, iv, mouse, 0.25 h, read-out: Brain/Plasma ratio, individual animal",125
same,Kp at 0.5 h,"[1]; male, ICR (CD-1), mouse, brain/plasma, iv, mouse, 0.50 h, read-out: Brain/Plasma ratio, Mean",151
same,Kp at 0.5 h,"[1]; male, ICR (CD-1), mouse, brain/plasma, iv, mouse, 0.50 h, read-out: Brain/Plasma ratio, individual animal",128
same,Kp at 1 h,"[1]; male, ICR (CD-1), mouse, brain/plasma, iv, mouse, 1.00 h, read-out: Brain/Plasma ratio, Mean",159
same,Kp at 1 h,"[1]; male, ICR (CD-1), mouse, brain/plasma, iv, mouse, 1.00 h, read-out: Brain/Plasma ratio, individual animal",178
same,Kp at 2 h,"[1]; male, ICR (CD-1), mouse, brain/plasma, iv, mouse, 2.00 h, read-out: Brain/Plasma ratio, Mean",183
same,Kp at 4 h,"[1]; male, ICR (CD-1), mouse, brain/plasma, iv, mouse, 4.00 h, read-out: Brain/Plasma ratio, Mean",210
same,Kp at 4 h,"[1]; male, ICR (CD-1), mouse, brain/plasma, iv, mouse, 4.00 h, read-out: Brain/Plasma ratio, individual animal",188
same,concentration at 0.083 h,"[1]; male, ICR (CD-1), mouse, plasma, iv, mouse plasma, 0.083 h, read-out: Conc. in plasma, Mean",47.1 ng/mL
same,concentration at 0.083 h,"[1]; male, ICR (CD-1), mouse, plasma, iv, mouse plasma, 0.083 h, read-out: Conc. in plasma, individual animal",52.9 ng/mL
same,concentration at 0.25 h,"[1]; male, ICR (CD-1), mouse, plasma, iv, mouse plasma, 0.25 h, read-out: Conc. in plasma, Mean",30.2 ng/mL
same,concentration at 0.5 h,"[1]; male, ICR (CD-1), mouse, plasma, iv, mouse plasma, 0.50 h, read-out: Conc. in plasma, Mean",17.9 ng/mL
same,concentration at 0.5 h,"[1]; male, ICR (CD-1), mouse, plasma, iv, mouse plasma, 0.50 h, read-out: Conc. in plasma, individual animal",17.2 ng/mL
same,concentration at 1 h,"[1]; male, ICR (CD-1), mouse, plasma, iv, mouse plasma, 1.00 h, read-out: Conc. in plasma, Mean",15.4 ng/mL
same,concentration at 1 h,"[1]; male, ICR (CD-1), mouse, plasma, iv, mouse plasma, 1.00 h, read-out: Conc. in plasma, individual animal",15.5 ng/mL
same,concentration at 2 h,"[1]; male, ICR (CD-1), mouse, plasma, iv, mouse plasma, 2.00 h, read-out: Conc. in plasma, Mean",4.37 ng/mL
same,concentration at 4 h,"[1]; male, ICR (CD-1), mouse, plasma, iv, mouse plasma, 4.00 h, read-out: Conc. in plasma, Mean",0.565 ng/mL
same,concentration at 4 h,"[1]; male, ICR (CD-1), mouse, plasma, iv, mouse plasma, 4.00 h, read-out: Conc. in plasma, individual animal",0.597 ng/mL
same,"CMA activity (fluorescent puncta per cell, relative to untreated cells = 1)",[2]; Time 5,2.667
same,"CMA activity (fluorescent puncta per cell, relative to untreated cells = 1)",[2]; Time 10,3.331
same,"CMA activity (fluorescent puncta per cell, relative to untreated cells = 1)",[2]; Time 20,5.005
same,"CMA activity (fluorescent puncta per cell, relative to untreated cells = 1)",[2]; Time 30,5.471
